Laboratory results taken from patent US10562893B2, “Benzimidazoles derivatives as Tec kinases family inhibitors” (GB005, Inc., priority 2015, dated 2020).

Experiments:
RLK/TXK = RLK/TXK (Homo sapiens (Human), UniProt P42681); test: RLK/TXK kinase inhibition assay; format: biochemical; conditions: micro-fluidic detection, 3 hours at 25° C.
Experimental: (§1) The in vitro kinase assays were performed at Nanosyn utilizing micro-fluidic detection technology. The test compounds were serially pre-diluted in DMSO and added, by the acoustic dispensing (Labcyte® 550), directly to 384well assay plates into 10 uL of a buffer with enzyme comprising: 100 mM HEPES, pH7.5, 5 mM MgCl2, 0.1% bovine serum albumin, 1 mM DTT, 0.01% Triton X-100 and the enzyme. Final DMSO concentration was maintained at 1% in all samples, including the controls. The reactions were initiated by addition of ATP (to the specified concentration) and the fluorescently labeled peptide substrate to a final concentration of 1 uM, and incubated for 3 hours at 25° C. Following incubation, the reactions were quenched by addition of 40 μL of termination buffer (100 mM HEPES, pH7.5, 0.01% Triton X-100, 50 mM EDTA). Terminated plates were analyzed using Caliper LabChip® 3000 microfluidic electrophoresis instrument (Caliper Life Sciences/Perkin Elmer). The enzymatic modification of the peptide substrate (phosphorylation) results in a change of net charge enabling electrophoretic separation of product from substrate. As substrate and product are separated by electrophoresis, two peaks of fluorescence are observed. Change in the relative fluorescence intensity of the substrate and product peaks was the parameter measured, reflecting enzyme activity. In the presence of inhibitor, the ratio between product and substrate is altered: signal of the product decreases, while the signal of the substrate increases. Activity in each test sample was determined as the product to sum ratio (PSR): P/(S+P), where P is the peak height of the product and S is the peak height of the […]. For each compound, enzyme activity was measured at 12 concentrations spaced by 3× dilution intervals. Negative control samples (0%-inhibition in the absence of inhibitor, DMSO only) and positive control samples (100%-inhibition, in the absence of enzyme or in the presence of control inhibitor) were assembled in replicates of four and were used to calculate %-inhibition values in the presence of compounds. Percent inhibition (Pinh) was determined using the following equation: Pinh=(PSR0%−PSRinh)/(PSR0%−PSR100%)*100, where PSRinh is the product sum ratio in the presence of inhibitor, PSR0% is the product sum ratio in the absence of inhibitor and PSR100% is the product sum ratio in 100%-inhibition control samples. To determine IC50 values, the inhibition curves (Pinh versus inhibitor concentration) were fitted by 4 parameter sigmoid dose-response model using XLfit software (IDBS).

Human PBMCs = test: CD3/CD28 mediated PBMC proliferation assay; format: cell-based; conditions: proliferation of human PBMCs stimulated with anti-CD3 and anti-CD28, 72 hours, Cell Titer-Glo
Experimental: Inhibition of cellular ITK was assessed by measuring proliferation of PBMCs following stimulation with anti-CD3 and anti-CD28 antibodies. Individual wells of 96 well tissue culture plates were coated with 50 μL of 5 μg/mL anti-CD3 (OKT3, eBiosciences) for 2 hours at 37° C. Human PBMCs (Stemcell Technologies catalog #70025.3) were plated in 96-well plates at a final concentration of 9.2×10e5 cells/mL in complete media (RPMI, 10% heat inactivated FBS, 55 uM β-mercaptoethanol) and pre-treated with compound curves for 30 minutes at 37° C., 5% CO2. Pre-treated cells plus compounds were transferred to washed anti-CD3 coated plates. Soluble anti-CD28 (CD28.2 eBiosciences) was added to each well at a final concentration of 2 μg/mL. The cells were placed in a humidified 37° C. incubator with 5% CO2 for 72 hours and metabolic viability was measured by quantification of ATP levels with Cell Titer-Glo (Promega catalog # G9242). Controls included unstimulated cells and vehicle alone. EC50 values (50% proliferation in the presence of compound as compared to vehicle treated controls) were calculated from dose response compound curves using GraphPad Prism Software.

ITK = ITK (Homo sapiens (Human), UniProt Q08881); test: ITK kinase inhibition assay; format: biochemical; conditions: micro-fluidic detection, 3 hours at 25° C.
Sequence of ITK (Q08881 whole entry): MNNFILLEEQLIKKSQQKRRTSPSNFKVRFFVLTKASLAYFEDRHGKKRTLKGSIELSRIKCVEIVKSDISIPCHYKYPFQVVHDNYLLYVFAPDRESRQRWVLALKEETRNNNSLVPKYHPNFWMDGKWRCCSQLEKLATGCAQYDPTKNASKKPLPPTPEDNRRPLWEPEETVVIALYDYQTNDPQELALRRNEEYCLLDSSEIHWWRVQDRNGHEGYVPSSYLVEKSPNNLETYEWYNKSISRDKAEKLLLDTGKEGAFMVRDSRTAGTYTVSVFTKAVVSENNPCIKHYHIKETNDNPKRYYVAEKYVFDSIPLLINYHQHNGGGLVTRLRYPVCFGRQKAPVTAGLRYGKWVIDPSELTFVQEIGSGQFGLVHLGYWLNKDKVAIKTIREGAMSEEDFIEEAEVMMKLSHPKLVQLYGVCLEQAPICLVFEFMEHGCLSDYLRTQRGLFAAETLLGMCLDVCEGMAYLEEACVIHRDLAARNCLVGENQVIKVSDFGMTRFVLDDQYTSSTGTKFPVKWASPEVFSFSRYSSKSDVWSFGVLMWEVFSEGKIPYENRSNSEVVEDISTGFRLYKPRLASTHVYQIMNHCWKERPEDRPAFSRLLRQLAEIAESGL
Experimental: as §1, with “384 well” for “384well”, “(PSR):P/(S+P),” for “(PSR): P/(S+P),”

[1] = tested on: Jurkat human acute T cell leukemia cells; test: Jurkat IL-2 release assay; format: cell-based; conditions: IL-2 release from Jurkat cells stimulated with anti-CD3 and anti-CD28, 48 hours, ELISA
Experimental: Inhibition of cellular ITK was assessed by measuring release of IL-2 following stimulation with anti-CD3 and anti-CD28 antibodies. Individual wells of 96 well tissue culture plates were coated with 50 μL of 10 μg/mL anti-CD3 (OKT3, eBiosciences) for 2 hours at 37° C. Jurkat human acute T cell leukemia cells (ATCC) were plated in 96-well plates at a final concentration of 9.2×10e5 cells/mL in complete media (RPMI, 10% FBS, 1.5 g/L sodium bicarbonate, 10 mM Hepes, 1 mM sodium pyruvate, 4.5 g/L glucose) and pre-treated with compound curves for 30 minutes at 37° C., 5% CO2. Pre-treated cells plus compounds were transferred to washed anti-CD3 coated plates. Soluble anti-CD28 (CD28.2 eBiosciences) was added to each well at a final concentration of 1 μg/mL. The cells were placed in a humidified 37° C. incubator with 5% CO2 for 48 hours and IL-2 release was measured using a commercial ELISA (BD Bioscience catalog #555190). Controls included unstimulated cells and vehicle alone. EC50 values (50% IL-2 release in the presence of compound as compared to vehicle treated controls) were calculated from dose response compound curves using GraphPad Prism Software.

Sequence of RLK/TXK (P42681 whole entry): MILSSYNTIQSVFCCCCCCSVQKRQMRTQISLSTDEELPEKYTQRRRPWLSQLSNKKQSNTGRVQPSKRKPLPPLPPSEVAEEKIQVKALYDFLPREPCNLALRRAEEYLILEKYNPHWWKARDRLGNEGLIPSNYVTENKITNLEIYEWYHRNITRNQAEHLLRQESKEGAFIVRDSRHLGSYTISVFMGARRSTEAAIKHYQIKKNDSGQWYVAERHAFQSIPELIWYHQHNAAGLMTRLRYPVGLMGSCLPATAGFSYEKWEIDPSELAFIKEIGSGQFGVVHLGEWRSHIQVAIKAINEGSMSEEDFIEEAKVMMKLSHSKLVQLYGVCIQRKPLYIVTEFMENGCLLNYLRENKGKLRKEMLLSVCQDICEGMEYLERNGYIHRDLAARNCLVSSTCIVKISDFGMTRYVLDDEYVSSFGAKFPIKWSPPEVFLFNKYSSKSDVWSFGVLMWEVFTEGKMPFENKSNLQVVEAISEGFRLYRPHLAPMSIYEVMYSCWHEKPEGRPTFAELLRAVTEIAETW

SMILES	EC50 (RLK/TXK) [nM]	EC50 (Human PBMCs) [nM]	EC50 (ITK) [nM]	EC50 [1] [nM]
C=CC(=O)N[C@H]1CC[C@@H](n2c(NC(=O)c3ccc(C(F)F)s3)nc3cc(CN[C@@H](C)C(C)(C)C)ccc32)C1 [Compound 62]	10 to 100	> 100	< 10	10 to 100
C=CC(=O)Nc1cccc(-n2c(NC(=O)c3cnco3)nc3cc(CN[C@@H](C)C(C)(C)C)ccc32)c1 [Compound 42]	10 to 100	10 to 100	10 to 100	< 10
C=CC(=O)Nc1cccc(-n2c(NC(=O)c3ccccn3)nc3cc(CN[C@@H](C)C(C)(C)C)ccc32)c1 [Compound 27]	> 100	> 100	> 100	> 100
C=CC(=O)Nc1cccc(-n2c(NC(=O)c3ccc(C(F)F)s3)nc3cc(CN4CCOCC4)ccc32)c1 [Compound 50]	< 10	< 10	< 10	< 10
C=CC(=O)Nc1cccc(-n2c(NC(=O)c3nccs3)nc3cc(CN[C@@H](C)C(C)(C)C)ccc32)c1 [Compound 12]	10 to 100	> 100	> 100	> 100
C=CC(=O)N[C@H]1C[C@@H](n2c(NC(=O)c3ccc(C(F)F)s3)nc3cc(CN[C@@H](C)C(C)(C)C)ccc32)C1 [Compound 1]	10 to 100	10 to 100	< 10	10 to 100
C=CC(=O)N[C@@H]1CC[C@H](n2c(NC(=O)c3ccc(C(F)F)s3)nc3cc(CN[C@@H](C)C(C)(C)C)ccc32)C1 [Compound 18]	< 10	10 to 100	< 10	< 10
C=CC(=O)Nc1cccc(-n2c(NC(=O)c3ccc(C(F)F)s3)nc3cc(CN[C@@H](C)CC)ccc32)c1 [Compound 21]		< 10		10 to 100
C=CC(=O)N(C)[C@H]1C[C@@H](n2c(NC(=O)c3ccc(C(F)F)s3)nc3cc(CN[C@@H](C)C(C)(C)C)ccc32)C1 [Compound 6]		10 to 100		< 10
C=CC(=O)Nc1cccc(-n2c(NC(=O)c3ccc(OC)cc3)nc3cc(CN[C@@H](C)C(C)(C)C)ccc32)c1 [Compound 24]		> 100		> 100
C=CC(=O)Nc1cccc(-n2c(NC(=O)c3ccno3)nc3cc(CN4CCOCC4)ccc32)c1 [Compound 76]		10 to 100		< 10
C=CC(=O)Nc1cccc(-n2c(NC(=O)c3ccc(C(F)F)s3)nc3cc(CN4CCCC4)ccc32)c1 [Compound 32]		< 10		< 10
C=CC(=O)Nc1cccc(-n2c(NC(=O)c3ccc(C(F)F)s3)nc3cc(CN4CCN(CCO)CC4)ccc32)c1 [Compound 59]		< 10		< 10
C=CC(=O)Nc1cccc(-n2c(NC(=O)c3ccc(OCc4ccccc4)cc3)nc3cc(CN[C@@H](C)C(C)(C)C)ccc32)c1 [Compound 37]		> 100		> 100
C=CC(=O)Nc1cccc(-n2c(NC(=O)c3ccc(C(F)F)s3)nc3cc(CNCC(C)(C)CO)ccc32)c1 [Compound 29]		< 10		< 10
C=CC(=O)Nc1cccc(-n2c(NC(=O)c3ccc(C(F)F)s3)nc3cc(CN[C@@H](CO)C(C)(C)C)ccc32)c1 [Compound 22]		< 10		< 10
C=CC(=O)Nc1cccc(-n2c(NC(=O)c3ccc(Cl)cc3)nc3cc(CN[C@@H](C)C(C)(C)C)ccc32)c1 [Compound 10]		10 to 100		10 to 100
C=CC(=O)Nc1cccc(-n2c(NC(=O)c3ccc(C(F)F)s3)nc3cc(CNC4CCCCC4)ccc32)c1 [Compound 14]		10 to 100		< 10
C=CC(=O)N[C@H]1CCC[C@@H](n2c(NC(=O)c3ccc(C(F)F)s3)nc3cc(CN[C@@H](C)C(C)(C)C)ccc32)C1 [Compound 68]	< 10	< 10	< 10	
C=CC(=O)Nc1cccc(-n2c(NC(=O)c3ccc(C(F)F)s3)nc3cc(CN[C@H]4CC[C@@H](O)CC4)ccc32)c1 [Compound 35]		< 10		10 to 100
C=CC(=O)Nc1cccc(-n2c(NC(=O)c3ccc(C(F)F)s3)nc3cc(CNCC(C)(C)C)ccc32)c1 [Compound 23]		< 10		< 10
C=CC(=O)Nc1cccc(-n2c(NC(=O)c3cccc(OC)c3)nc3cc(CN[C@@H](C)C(C)(C)C)ccc32)c1 [Compound 8]		> 100		10 to 100
C=CC(=O)N[C@H]1CC[C@@H](n2c(NC(=O)c3ccns3)nc3cc(CN[C@@H](C)C(C)(C)C)ccc32)CC1 [Compound 67]		> 100		10 to 100
C=CC(=O)N[C@H]1CC[C@@H](n2c(NC(=O)c3ccc(C#N)cc3)nc3cc(CN[C@@H](C)C(C)(C)C)ccc32)CC1 [Compound 54]		> 100		> 100
C=CC(=O)Nc1ccc(-n2c(NC(=O)c3ccc(C(F)F)s3)nc3cc(CN[C@@H](C)C(C)(C)C)ccc32)cc1 [Compound 4]		> 100		10 to 100
